Where a name gives a salt, the structure may show the parent alone.
Legend:
[1] = molecular target: PDE4B2 (Homo sapiens (Human), UniProt Q07343); experiment: PDE4 Inhibition Assay (TR-FRET IMAP, FAM-cAMP substrate); assay type: biochemical; details: 100 nM cAMP, 30° C., 90 minutes
Experimental: (§1) A TR-FRET-based phosphodiesterase assay kit from “Molecular Devices” was used to test whether these compounds were indeed direct inhibitors of the PDE4 enzyme. Using Roflumilast as a positive control, compounds of the present invention were tested against fluorescein-labeled cAMP substrate. The principle of the assay is based on the binding of a nucleotide monophosphate generated upon cAMP conversion to 5′ AMP by PDE to an “IMAP binding reagent”, which in turn is also ligated to a separate complex carrying terbium (Tb)-donor molecule. Proximity of the fluoreceinated 5′AMP to the Tb donor generates Fluorescence Resonance Energy Transfer. A PDE inhibitor will reduce the conversion of cAMP to 5′AMP, thus reducing monophosphate that can bind to the IMAP binding reagent and reduce the resulting FRET signal.
(§2) The assay buffer was prepared by diluting 5× supplied Tween-based buffer in 1:5 in water to make 1× buffer. Add desired additive to buffer (DTT or MnCl2). In a separate 96-well polypropylene plate, compound dilutions were prepared in assay buffer. Separate microcentrifuge tubes were prepared of PDE4B and PDE4D according to assay template—in assay buffer. The tubes were kept on ice. The enzyme concentration shown on the template were diluted by 1:4. FAM-cAMP substrate solution was prepared according to assay template. 5 μl compound was transferred from polypropylene plate into black 384-well plate. This plate was centrifuged briefly to make sure all 5 μl is on the bottom. Up to 80 μl of prepared PDE4B enzyme solution was transferred into alternate wells on row ‘N’ of 384-well plate starting from cell N1. Up to 80 μl of prepared PDE4D enzyme solution was transferred into alternate wells on row ‘O’ of 384-well plate, starting from cell O2. cAMP substrate solution was transferred into bottom row of separate 96-well plate. 5 μl of enzyme solution from the “reservoir” row (N or O) was transferred to each of the wells containing compounds, per layout map. Next, 10 μl of cAMP substrate was transferred to these wells. The order of substrate-first or enzyme-first can be switched depending on what is optimal. The final cAMP concentration was 100 nM in the reaction. 20 μl of assay buffer was pipetted into 4 separate wells—these are the blanks. The plate was sealed with an aluminum strip and incubated at 30° C. for 90 minutes. A TR-FRET solution was prepared. […]. 25 μl ( 1/800 of 20 ml) of binding beads was added to this and mix by inverting. 60 μl of this mixture was pipetted into 2 of the wells containing the “blank” assay buffer. Next, 49.7 μl ( 1/400 of remaining volume) of Tb donor solution was added to the remaining TR-FRET solution and mixed by inverting. 60 μl of this solution was pipetted into remaining 2 “blank” assay buffer-containing wells. The TR-FRET solution was poured into a pipette boat and a multichannel pipette was used to drop 60 μl of solution into all assay wells. The wells were covered with a foil strip and incubated for at least 3 hours or overnight protected from light (e.g. in a drawer) at room temperature. The plate was read on the Envision Reader: Emission 1: 520/Emission 2: 486/Exc: 340. Mirror: Umbelliferone (UV).

[2] = molecular target: PDE4D (Homo sapiens (Human), UniProt Q08499); experiment: as above; assay type: biochemical; details: 100 nM cAMP, 30° C., 90 minutes
Chain of PDE4D (Q08499 whole entry, species assumed): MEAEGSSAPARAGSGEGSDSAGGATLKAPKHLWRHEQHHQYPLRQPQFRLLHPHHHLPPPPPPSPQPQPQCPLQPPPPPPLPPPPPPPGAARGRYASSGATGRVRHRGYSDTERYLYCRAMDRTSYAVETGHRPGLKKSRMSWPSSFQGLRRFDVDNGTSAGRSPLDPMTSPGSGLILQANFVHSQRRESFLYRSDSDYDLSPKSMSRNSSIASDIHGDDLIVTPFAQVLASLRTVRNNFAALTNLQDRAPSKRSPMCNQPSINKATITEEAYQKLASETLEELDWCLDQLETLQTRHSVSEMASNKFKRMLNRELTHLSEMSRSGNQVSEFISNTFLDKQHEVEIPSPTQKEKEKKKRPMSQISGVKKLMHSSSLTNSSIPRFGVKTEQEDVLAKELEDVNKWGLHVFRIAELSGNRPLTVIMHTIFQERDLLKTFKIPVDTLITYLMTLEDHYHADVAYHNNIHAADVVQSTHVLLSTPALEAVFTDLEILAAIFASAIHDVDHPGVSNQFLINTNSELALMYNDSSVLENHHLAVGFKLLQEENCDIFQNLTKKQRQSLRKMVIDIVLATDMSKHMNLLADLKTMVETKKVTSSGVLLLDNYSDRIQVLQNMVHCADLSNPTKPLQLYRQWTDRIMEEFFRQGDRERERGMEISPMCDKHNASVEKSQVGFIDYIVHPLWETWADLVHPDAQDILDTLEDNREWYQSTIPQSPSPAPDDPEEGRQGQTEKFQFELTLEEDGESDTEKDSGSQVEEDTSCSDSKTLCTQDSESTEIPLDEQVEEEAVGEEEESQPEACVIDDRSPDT
Experimental: as §1, §2

Chain of PDE4B2 (Q07343 other isoform, or with tags, fused parts or gaps, species assumed): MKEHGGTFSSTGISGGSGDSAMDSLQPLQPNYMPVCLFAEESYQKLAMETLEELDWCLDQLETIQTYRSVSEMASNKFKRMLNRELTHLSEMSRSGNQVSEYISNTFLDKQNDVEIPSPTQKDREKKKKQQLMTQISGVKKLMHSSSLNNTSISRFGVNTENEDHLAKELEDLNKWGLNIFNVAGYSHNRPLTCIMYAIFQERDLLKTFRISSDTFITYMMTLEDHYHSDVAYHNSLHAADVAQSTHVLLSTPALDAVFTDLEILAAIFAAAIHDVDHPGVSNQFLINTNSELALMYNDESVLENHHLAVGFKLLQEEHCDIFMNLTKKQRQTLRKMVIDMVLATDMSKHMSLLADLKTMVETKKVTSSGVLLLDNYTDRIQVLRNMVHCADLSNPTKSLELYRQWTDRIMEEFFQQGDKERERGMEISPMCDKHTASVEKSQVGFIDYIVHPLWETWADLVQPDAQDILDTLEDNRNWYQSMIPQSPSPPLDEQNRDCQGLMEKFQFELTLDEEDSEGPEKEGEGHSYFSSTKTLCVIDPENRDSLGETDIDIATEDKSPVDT

Compound | IC50 [1] | IC50 [2]
CCS(=O)(=O)N1CCC(n2c(=O)n(-c3cccc(Cl)c3)c(=O)c3cnc4c(OC)cccc4c32)CC1 [Example 121, 3-(3-Chloro-phenyl)-1-(1-ethanesulfonyl-piperidin-4-yl)-7-methoxy-1H-pyrimido[5,4-c]quinoline-2,4-dione] | 26 nM | 59 nM
CCn1c(=O)c2cnc3c(Cl)cccc3c2n(C2CCCC2)c1=O [Example 30, 7-Chloro-1-cyclopentyl-3-ethyl-1H-pyrimido[5,4-c]quinoline-2,4-dione] | 17000 nM | 25000 nM
COc1cccc2c1ncc1c(=O)n(-c3cccc(Cl)c3)c(=O)n([C@@H]3CCN(S(C)(=O)=O)C3)c12 [Example 115, 3-(3-Chloro-phenyl)-1-((R)-1-methanesulfonyl-pyrrolidin-3-yl)-7-methoxy-1H-pyrimido[5,4-c]quinoline-2,4-dione] | 49 nM | 163 nM
COc1cccc2c1ncc1c(=O)n(-c3cccc(C)c3)c(=O)n(C3CCCC3)c12 [Example 54, 1-Cyclopentyl-7-methoxy-3-m-tolyl-1H-pyrimido[5,4-c]quinoline-2,4-dione] | 78 nM | 338 nM
COc1cccc2c1ncc1c(=O)n(-c3ccc4c(c3)OCO4)c(=O)n(C3CCCC3)c12 [Example 84, 3-Benzo[1,3]dioxol-5-yl-1-cyclopentyl-7-methoxy-1H-pyrimido[5,4-c]quinoline-2,4-dione] | 513 nM | 827 nM
CCCc1cccc2c1ncc1c(=O)n(CC)c(=O)n(C3CCCC3)c12 [Example 32, 1-Cyclopentyl-3-ethyl-7-propyl-1H-pyrimido[5,4-c]quinoline-2,4-dione] | 25000 nM | 25000 nM
COc1cccc2c1ncc1c(=O)n(-c3cccc(Cl)c3)c(=O)n(C3CCN(S(C)(=O)=O)CC3)c12 [Example 92, 3-(3-Chloro-phenyl)-1-(1-methanesulfonyl-piperidin-4-yl)-7-methoxy-1H-pyrimido[5,4-c]quinoline-2,4-dione] | 68 nM | 151 nM
COc1cccc2c1ncc1c(=O)n(-c3cccc(Cl)c3)c(=O)n([C@H]3CC[C@H](NS(C)(=O)=O)CC3)c12 [Example 127, N-{4-[(S)-3-(3-Chloro-phenyl)-7-methoxy-2,4-dioxo-3,4-dihydro-2H-pyrimido[5,4-c]quinolin-1-yl]-trans-cyclohexyl}-methanesulfonamide] | 25 nM | 73 nM
COc1cccc2c1ncc1c(=O)n(-c3cccc(Cl)c3)c(=O)n([C@H]3CC[C@H](C(=O)O)CC3)c12 [Example 103, Trans-4-[3-(3-Chloro-phenyl)-7-methoxy-2,4-dioxo-3,4-dihydro-2H-pyrimido[5,4-c]quinolin-1-yl]-cyclohexanecarboxylic acid.hydrochloride] | 17 nM | 55 nM
COc1cccc2c1ncc1c(=O)n(-c3cc(C)cs3)c(=O)n(C3CCCC3)c12 [Example 51, 1-Cyclopentyl-7-methoxy-3-(4-methyl-thiophen-2-yl)-1H-pyrimido[5,4-c]quinoline-2,4-dione] | 126 nM | 616 nM
CCn1c(=O)c2cnc3c(C(C)C)cccc3c2n(C2CCCC2)c1=O [Example 33, 1-Cyclopentyl-3-ethyl-7-isopropyl-1H-pyrimido[5,4-c]quinoline-2,4-dione] | 12400 nM | 25000 nM
COc1cccc2c1ncc1c(=O)n(-c3cccc(Cl)c3)c(=O)n([C@H]3CCN(S(C)(=O)=O)C3)c12 [Example 118, 3-(3-Chloro-phenyl)-1-((S)-1-methanesulfonyl-pyrrolidin-3-yl)-7-methoxy-1H-pyrimido[5,4-c]quinoline-2,4-dione] | 80 nM | 206 nM
